The values that follow come from publication PMC9516332 (Frontiers in Oncology, 2022).

pIC50: −log10 of the molar value. Like-named read-outs stand apart in the source and are kept apart here.

One assay relates to EGFR-mutant cell lines. The experiment in a line: Cell viability assay, EGFR-mutant versus EGFR wild-type cell lines. The assay is classed as cell-based.
Another assay concerns the target MEK2 (Homo sapiens, UniProt P36507). The experiment in a line: Enzyme-linked immunosorbent assay (ELISA) of enzymatic activity, IC50. It counts as biochemical.
A further assay has as its target MEK1 (Homo sapiens, UniProt Q02750). Described as above. The assay is classed as biochemical.
Another assay concerns the target T1, ALK (Homo sapiens, UniProt Q9UM73).
T1 construct: purchased Carna Biosciences (only by web pointer)
Description: Biochemical kinase assay (MSA), IC50.

A further assay relates to MET-altered cell lines. The settings on record: MANOVA.
The test system of assay [1] is EGFR double mutants p.ex19del/T790M and p.L858R/T790M. The experiment in a line: Biochemical kinase assays with EGFR mutants.
Assay [2] concerns NCI-H1975 (EGFR p.L858R + p.T790M). The experiment in a line: Cell viability assay. The assay is classed as cell-based.
In another assay the test system is ALK-altered cell lines. The experiment in a line: Cell viability assay, ALK-altered versus ALK wild-type cell lines. It counts as cell-based. Conditions: MANOVA.
Assay [3] concerns FLT3 ITD-mutant cell lines MOLM-13 and MV4-11. Description: Cell viability assay. It counts as cell-based.
A further assay concerns the target T2, FLT3 (Homo sapiens, UniProt P36888).
T2 construct: purchased Carna Biosciences (only by web pointer)
Description: Biochemical kinase assay (MSA), IC50. The settings on record: biochemical assays.

Another assay relates to FGFR-altered cell lines. The experiment in a line: Cell viability assay, FGFR-altered versus FGFR wild-type cell lines. It counts as cell-based. The settings on record: for pIC50: read-out: average IC50 in the eight FGFR-altered cell lines; for higher potency in FGFR-altered compared to FGFR wild-type cell lines: on average; for higher potency in FGFR-altered compared to FGFR wild-type cell lines / activity in FGFR-altered versus wild-type cell lines: MANOVA.

A further assay deals with T3, ROS (Homo sapiens, UniProt P08922).
T3 construct: purchased Carna Biosciences (only by web pointer)
The experiment in a line: Biochemical kinase assay (MSA), IC50. Conditions: biochemical assays.

In a further assay the target is T4, FGFR1 (Homo sapiens, UniProt P11362).
T4 construct: purchased Carna Biosciences (only by web pointer)
T4 sequence (P11362 22-822): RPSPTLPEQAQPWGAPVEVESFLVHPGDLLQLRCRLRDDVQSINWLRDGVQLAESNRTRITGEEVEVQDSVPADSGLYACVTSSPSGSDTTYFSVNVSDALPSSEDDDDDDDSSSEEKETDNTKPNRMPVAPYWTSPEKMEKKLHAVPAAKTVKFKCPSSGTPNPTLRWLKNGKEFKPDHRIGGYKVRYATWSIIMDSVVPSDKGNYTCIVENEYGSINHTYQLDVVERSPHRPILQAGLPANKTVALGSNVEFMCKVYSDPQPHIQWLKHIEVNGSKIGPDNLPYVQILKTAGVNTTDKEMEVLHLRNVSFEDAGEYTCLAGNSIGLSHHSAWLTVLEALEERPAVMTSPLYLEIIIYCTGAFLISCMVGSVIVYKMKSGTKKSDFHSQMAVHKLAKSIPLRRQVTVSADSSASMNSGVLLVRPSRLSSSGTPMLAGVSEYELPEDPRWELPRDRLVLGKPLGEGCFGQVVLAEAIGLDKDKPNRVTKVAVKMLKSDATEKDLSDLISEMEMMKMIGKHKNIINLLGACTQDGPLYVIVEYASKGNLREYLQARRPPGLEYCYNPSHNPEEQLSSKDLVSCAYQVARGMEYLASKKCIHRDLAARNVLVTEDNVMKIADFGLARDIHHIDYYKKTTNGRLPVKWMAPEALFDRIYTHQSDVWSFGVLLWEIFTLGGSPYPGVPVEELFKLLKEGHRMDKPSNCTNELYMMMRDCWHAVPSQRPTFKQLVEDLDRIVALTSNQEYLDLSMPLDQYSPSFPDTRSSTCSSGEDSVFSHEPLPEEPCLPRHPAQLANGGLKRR
Description: Biochemical kinase assay (MSA), IC50.

The next assay concerns the target T5, FGFR4 (Homo sapiens, UniProt P22455).
T5 construct: purchased Carna Biosciences (only by web pointer)
Description: Biochemical kinase assay (MSA), IC50.

In a further assay the target is T6, FGFR2 (Homo sapiens, UniProt P21802).
T6 construct: purchased Carna Biosciences (only by web pointer)
T6 sequence (P21802 22-821): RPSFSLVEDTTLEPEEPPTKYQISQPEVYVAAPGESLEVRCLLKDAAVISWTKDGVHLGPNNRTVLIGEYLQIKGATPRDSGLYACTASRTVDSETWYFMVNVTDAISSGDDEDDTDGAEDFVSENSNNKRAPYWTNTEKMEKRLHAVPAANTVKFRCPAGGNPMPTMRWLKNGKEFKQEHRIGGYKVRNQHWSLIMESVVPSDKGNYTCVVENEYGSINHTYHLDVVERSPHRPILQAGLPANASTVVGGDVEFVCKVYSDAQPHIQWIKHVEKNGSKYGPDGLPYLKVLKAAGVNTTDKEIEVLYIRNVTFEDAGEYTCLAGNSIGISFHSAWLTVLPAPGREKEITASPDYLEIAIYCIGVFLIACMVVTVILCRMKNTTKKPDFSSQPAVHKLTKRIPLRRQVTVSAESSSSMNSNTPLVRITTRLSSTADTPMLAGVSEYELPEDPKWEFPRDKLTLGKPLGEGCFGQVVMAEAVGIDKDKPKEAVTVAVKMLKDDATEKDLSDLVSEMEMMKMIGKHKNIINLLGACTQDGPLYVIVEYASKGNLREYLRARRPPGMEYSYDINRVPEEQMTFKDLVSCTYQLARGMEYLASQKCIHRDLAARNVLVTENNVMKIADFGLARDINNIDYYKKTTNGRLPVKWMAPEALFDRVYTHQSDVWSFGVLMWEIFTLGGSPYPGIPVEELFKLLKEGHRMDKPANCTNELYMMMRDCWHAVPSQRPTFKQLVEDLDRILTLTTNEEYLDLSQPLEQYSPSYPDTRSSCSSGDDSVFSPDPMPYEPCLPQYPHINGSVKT
Description: Biochemical kinase assay (MSA), IC50.

The subject of assay [4] is RET-altered cell lines (LC-2/ad, TT). The experiment in a line: Cell viability assay, RET-altered versus RET wild-type cell lines. The assay is classed as cell-based. Conditions: for lower IC50 in RET-altered versus wild-type cell lines: MANOVA.
The target in the next assay is T7, FGFR3 (Homo sapiens, UniProt P22607).
T7 construct: purchased Carna Biosciences (only by web pointer)
The experiment in a line: Biochemical kinase assay (MSA), IC50.

Another assay has as its target T8, RET (Homo sapiens, UniProt P07949).
T8 construct: purchased Carna Biosciences (only by web pointer)
Description: Biochemical kinase assay (MSA), IC50. Conditions: biochemical assays.

For another assay, the target named is T9, HER4 (Homo sapiens, UniProt Q15303).
T9 construct: purchased Carna Biosciences (only by web pointer)
The experiment in a line: Biochemical kinase assay (MSA), IC50.

For another assay, the target named is T10, EGFR (Homo sapiens, UniProt P00533).
T10 construct: purchased Carna Biosciences (only by web pointer)
The experiment in a line: Biochemical kinase assay (MSA), IC50.

Another assay concerns the target T11, HER2 (Homo sapiens, UniProt P04626).
T11 construct: purchased Carna Biosciences (only by web pointer)
Description: Biochemical kinase assay (MSA), IC50.

Another assay addresses T12, BRK (Homo sapiens, UniProt Q13882).
T12 construct: purchased Carna Biosciences (only by web pointer)
Description: Biochemical kinase assay (MSA), IC50.

Chain of MEK1 (Q02750 whole entry): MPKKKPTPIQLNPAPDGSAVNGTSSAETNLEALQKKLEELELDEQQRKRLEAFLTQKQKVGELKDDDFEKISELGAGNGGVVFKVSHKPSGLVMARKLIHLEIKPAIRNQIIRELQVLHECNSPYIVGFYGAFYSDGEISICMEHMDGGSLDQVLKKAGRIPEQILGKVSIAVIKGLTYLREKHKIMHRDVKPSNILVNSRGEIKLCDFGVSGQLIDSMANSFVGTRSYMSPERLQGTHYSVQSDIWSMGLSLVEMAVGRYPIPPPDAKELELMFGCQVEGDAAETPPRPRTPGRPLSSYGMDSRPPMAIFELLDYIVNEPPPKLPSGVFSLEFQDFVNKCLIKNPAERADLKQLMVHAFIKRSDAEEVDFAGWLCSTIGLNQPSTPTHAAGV
T5 sequence (P22455 22-802): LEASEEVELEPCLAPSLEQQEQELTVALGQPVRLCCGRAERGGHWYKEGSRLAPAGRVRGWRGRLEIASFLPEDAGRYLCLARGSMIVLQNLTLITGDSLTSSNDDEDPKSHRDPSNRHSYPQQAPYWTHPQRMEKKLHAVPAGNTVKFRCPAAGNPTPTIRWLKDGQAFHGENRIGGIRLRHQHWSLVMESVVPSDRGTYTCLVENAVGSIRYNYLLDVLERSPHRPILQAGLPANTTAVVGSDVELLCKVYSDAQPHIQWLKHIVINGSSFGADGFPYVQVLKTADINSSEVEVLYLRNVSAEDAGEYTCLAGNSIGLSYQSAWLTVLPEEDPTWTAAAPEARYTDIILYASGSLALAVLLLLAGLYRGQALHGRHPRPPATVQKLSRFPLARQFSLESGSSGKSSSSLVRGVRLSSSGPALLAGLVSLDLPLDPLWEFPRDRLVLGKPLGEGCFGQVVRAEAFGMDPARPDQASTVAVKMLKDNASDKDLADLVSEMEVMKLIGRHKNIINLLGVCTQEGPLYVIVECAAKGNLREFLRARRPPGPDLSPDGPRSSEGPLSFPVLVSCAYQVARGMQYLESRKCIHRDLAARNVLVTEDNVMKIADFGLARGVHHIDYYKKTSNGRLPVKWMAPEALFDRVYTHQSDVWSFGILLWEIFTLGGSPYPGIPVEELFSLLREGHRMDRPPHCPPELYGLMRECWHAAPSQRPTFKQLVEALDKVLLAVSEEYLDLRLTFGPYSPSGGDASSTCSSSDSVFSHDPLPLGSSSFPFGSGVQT
T1 sequence (Q9UM73 19-1620): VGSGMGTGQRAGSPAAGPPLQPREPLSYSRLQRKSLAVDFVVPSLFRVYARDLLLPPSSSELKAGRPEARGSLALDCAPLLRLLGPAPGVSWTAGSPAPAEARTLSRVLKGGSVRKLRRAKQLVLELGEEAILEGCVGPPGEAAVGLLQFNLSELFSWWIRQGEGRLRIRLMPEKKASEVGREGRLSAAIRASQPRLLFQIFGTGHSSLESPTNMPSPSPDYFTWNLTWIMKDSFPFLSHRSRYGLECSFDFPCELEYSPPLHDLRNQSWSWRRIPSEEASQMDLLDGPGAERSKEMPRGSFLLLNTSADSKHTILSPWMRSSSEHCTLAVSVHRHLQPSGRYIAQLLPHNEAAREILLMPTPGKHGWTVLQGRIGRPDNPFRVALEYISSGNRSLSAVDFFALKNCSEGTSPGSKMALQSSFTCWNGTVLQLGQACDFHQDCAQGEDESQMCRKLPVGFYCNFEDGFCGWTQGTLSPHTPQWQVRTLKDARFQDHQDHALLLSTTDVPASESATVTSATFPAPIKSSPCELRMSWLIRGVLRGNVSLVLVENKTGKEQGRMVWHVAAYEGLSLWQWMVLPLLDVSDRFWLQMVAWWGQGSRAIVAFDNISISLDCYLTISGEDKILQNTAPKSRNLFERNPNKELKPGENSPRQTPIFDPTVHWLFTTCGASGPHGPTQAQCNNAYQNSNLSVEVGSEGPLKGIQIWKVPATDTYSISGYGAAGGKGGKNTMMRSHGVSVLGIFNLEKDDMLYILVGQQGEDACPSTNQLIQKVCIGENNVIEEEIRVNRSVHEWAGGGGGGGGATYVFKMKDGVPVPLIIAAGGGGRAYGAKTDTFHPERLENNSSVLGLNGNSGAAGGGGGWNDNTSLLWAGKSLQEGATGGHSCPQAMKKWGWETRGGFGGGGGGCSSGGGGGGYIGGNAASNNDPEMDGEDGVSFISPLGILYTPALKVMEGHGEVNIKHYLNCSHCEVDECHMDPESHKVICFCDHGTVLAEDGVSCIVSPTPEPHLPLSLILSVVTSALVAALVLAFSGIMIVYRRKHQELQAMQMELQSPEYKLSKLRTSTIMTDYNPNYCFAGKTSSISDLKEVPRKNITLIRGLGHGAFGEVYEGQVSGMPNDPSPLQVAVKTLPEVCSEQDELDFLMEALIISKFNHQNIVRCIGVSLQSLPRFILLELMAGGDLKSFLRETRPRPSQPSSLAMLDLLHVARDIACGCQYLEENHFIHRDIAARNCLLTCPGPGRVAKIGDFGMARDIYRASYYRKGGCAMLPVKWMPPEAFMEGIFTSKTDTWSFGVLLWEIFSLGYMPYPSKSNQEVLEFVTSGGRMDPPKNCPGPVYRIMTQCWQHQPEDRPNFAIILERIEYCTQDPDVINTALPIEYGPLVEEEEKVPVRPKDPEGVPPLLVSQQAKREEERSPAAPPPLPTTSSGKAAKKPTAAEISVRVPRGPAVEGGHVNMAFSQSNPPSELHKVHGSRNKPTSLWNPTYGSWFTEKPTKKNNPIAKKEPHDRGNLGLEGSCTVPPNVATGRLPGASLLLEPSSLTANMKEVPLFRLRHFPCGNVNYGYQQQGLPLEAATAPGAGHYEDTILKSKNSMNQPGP
Chain of MEK2 (P36507 whole entry): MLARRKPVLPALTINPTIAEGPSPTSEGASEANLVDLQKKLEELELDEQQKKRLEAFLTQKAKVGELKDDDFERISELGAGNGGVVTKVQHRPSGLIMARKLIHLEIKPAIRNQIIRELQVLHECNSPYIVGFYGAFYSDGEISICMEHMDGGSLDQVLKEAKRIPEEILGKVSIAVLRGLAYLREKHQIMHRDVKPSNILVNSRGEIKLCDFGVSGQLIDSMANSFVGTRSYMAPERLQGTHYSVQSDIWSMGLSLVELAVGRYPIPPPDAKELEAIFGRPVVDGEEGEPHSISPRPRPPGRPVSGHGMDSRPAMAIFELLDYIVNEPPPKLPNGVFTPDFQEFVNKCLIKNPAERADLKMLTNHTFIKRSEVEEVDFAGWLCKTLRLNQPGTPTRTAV

In the case of `CC#CC(=O)N1CCC[C@H]1c1nc(-c2ccc(C(=O)Nc3ccccn3)cc2)c2c(N)nccn12` [acalabrutinib], the “preferential targeting of EGFR-mutant cell lines” value in the assay on EGFR-mutant cell lines (MANOVA) is “did not significantly target”.

A word on the pIC50: it is −log10 of the IC50, conventionally taken in molar units. In the case of `Cn1cnc2c(F)c(Nc3ccc(Br)cc3F)c(C(=O)NOCCO)cc21` [binimetinib], the values for the pIC50 against MEK2 and at MEK1 were less than 6.00 and 6.30, respectively.

On to `CNC(=O)c1ccc(-c2cnc3ncc(Cc4ccc5ncccc5c4)n3n2)cc1F` [capmatinib], for which the negative logarithm of the IC50 (pIC50) on ALK was less than 6.00. The “higher potency in MET-altered compared to MET wild-type cell lines” value with MET-altered cell lines is reported as “over 10,000 fold”.

In the case of `O=C(c1ccc(F)c(F)c1Nc1ccc(I)cc1F)N1CC(O)([C@@H]2CCCCN2)C1` [cobimetinib], the results for the pIC50 at MEK2 and on MEK1 were 6.72 and 7.21, respectively.

Take `COc1cc2ncnc(Nc3ccc(F)c(Cl)c3)c2cc1NC(=O)/C=C/CN1CCCCC1` [dacomitinib]: the “lower potency on double mutants (p.T790M plus sensitizing mutation) than on wild-type EGFR and sensitizing mutants” value in assay [1] amounted to 30 fold. Besides, the “lower potency in NCI-H1975 compared to osimertinib” value in [2] turned out to be 28 fold. Also, the “lower IC50 (higher potency) in EGFR-mutant compared to EGFR wild-type cell lines” value in the assay with EGFR-mutant cell lines (on average, MANOVA) is “about 110 fold”.

For `CN1CCN(c2ccc(C(=O)Nc3n[nH]c4ccc(Cc5cc(F)cc(F)c5)cc34)c(NC3CCOCC3)c2)CC1` [entrectinib], the “difference in IC50 between ALK-altered and ALK wild-type cell lines” value in the assay with ALK-altered cell lines amounted to 12 fold.

For the compound `CCc1nc(C(N)=O)c(Nc2ccc(N3CCC(N4CCN(C)CC4)CC3)c(OC)c2)nc1NC1CCOCC1` [gilteritinib], the “potency in the FLT3 ITD-mutant cell lines compared to midostaurin” value in [3] (on average) is reported as “eight times more potent”. Also, the “difference in IC50 between ALK-altered and ALK wild-type cell lines” value in the assay with ALK-altered cell lines turned out to be 55 fold. Further, the “potency on FLT3 compared to midostaurin” value on FLT3 is “around eight-fold more potent”.

With `C=CC(=O)N1CCC[C@@H](n2nc(-c3ccc(Oc4ccccc4)cc3)c3c(N)ncnc32)C1` [ibrutinib], in the assay with EGFR-mutant cell lines (on average, MANOVA), the “lower IC50 (higher potency) in EGFR-mutant compared to EGFR wild-type cell lines” value is on record as 28 fold.

As for `CCN1CCN(c2ccc(Nc3cc(N(C)C(=O)Nc4c(Cl)c(OC)cc(OC)c4Cl)ncn3)cc2)CC1` [infigratinib], the “potency in FGFR-altered cell lines compared to erdafitinib and pemigatinib” value in the assay with FGFR-altered cell lines (average IC50) is on record as “more than three-fold lower potency”. Further, the pIC50 in the assay with FGFR-altered cell lines (geometric average) is 7.70. For the same compound, in the assay with FGFR-altered cell lines, the “higher potency in FGFR-altered compared to FGFR wild-type cell lines” value is reported as 130 fold.

Turning to `O=C(Nc1cnn2ccc(N3CCC[C@@H]3c3cc(F)ccc3F)nc12)N1CC[C@H](O)C1` [larotrectinib], at ALK, the pIC50 is less than 6.00. The “higher IC50 on ROS1 compared to TRKA-C” value on ROS is listed as “around 100 fold”. The “higher IC50 in MOLM-13 and MV4-11 compared to AP-1060” value in assay [3] (cell viability) is “more than 1000 fold”.

Turning to `C=CC(=O)Nc1cc(Nc2nccc(-c3cn(C)c4ccccc34)n2)c(OC)cc1N(C)CCN(C)C` [osimertinib], the “lower IC50 (higher potency) in EGFR-mutant compared to EGFR wild-type cell lines” value with EGFR-mutant cell lines is listed as 33 fold.

In the case of `CCN1C(=O)N(c2c(F)c(OC)cc(OC)c2F)Cc2cnc3[nH]c(CN4CCOCC4)cc3c21` [pemigatinib], in the assay on FGFR-altered cell lines, the “higher potency in FGFR-altered compared to FGFR wild-type cell lines” value was “over 500 fold” and the pIC50 was 8.37.

Take `CO[C@]1(C(=O)N[C@@H](C)c2ccc(-n3cc(F)cn3)nc2)CC[C@H](c2nc(C)cc(Nc3cc(C)[nH]n3)n2)CC1` [pralsetinib]: the “activity in FGFR-altered versus wild-type cell lines” value in the assay with FGFR-altered cell lines is recorded as “around ten times more active”. In addition, the pIC50 at FGFR1 is 7.96; against FGFR4, 6.74; on FGFR2, 7.57; against FGFR3 it was 7.30. The “lower IC50 in RET-altered versus wild-type cell lines” value in assay [4] was found to be 76 fold.

For the compound `COc1ccc(CN2C3CC2CN(c2ccc(-c4cc(OCC(C)(C)O)cn5ncc(C#N)c45)cn2)C3)cn1` [selpercatinib], at RET, the “potency on RET compared to pralsetinib” value is given as “almost two-fold more potent”. Moreover, the “activity in FGFR-altered versus wild-type cell lines” value in the assay on FGFR-altered cell lines is on record as “around ten times more active”. Further, the pIC50 was 7.34 at FGFR1, 6.59 against FGFR4, 7.80 against FGFR2 and 7.30 on FGFR3. Also, in [4], the “lower IC50 in RET-altered versus wild-type cell lines” value came out at 232 fold. In addition, the “potency in the RET-altered cell lines compared to pralsetinib” value in [4] (cell viability) was “three-fold more potent”.

As for `Cc1cc(Nc2ncnc3ccc(NC4=NC(C)(C)CO4)cc23)ccc1Oc1ccn2ncnc2c1` [tucatinib], the figures for the pIC50 on HER4, at EGFR and against HER2 were 7.02, 8.17 and 8.48, respectively.

`C=CC(=O)N1CCC([C@@H]2CCNc3c(C(N)=O)c(-c4ccc(Oc5ccccc5)cc4)nn32)CC1` [zanubrutinib] gave a pIC50 at BRK of 7.74. Also, the “lower IC50 (higher potency) in EGFR-mutant compared to EGFR wild-type cell lines” value in the assay with EGFR-mutant cell lines (on average, MANOVA) was found to be 8 fold.
